The results in this text go back to patent publication US20150218212A1, “FLUORINATED EPOXYKETONE-BASED TETRAPEPTIDE COMPOUNDS AND USES THEREOF AS PROTEASOME INHIBITORS” (FLUORINOV PHARMA INC., priority 2012, published 2015).

The structures appear in SMILES notation. A value given as a limit tells only on which side of the number the result lay.

What all share (assay type): cell-based, human
For one assay, the system named is NCI-H460. Briefly: NCI screening panel, NCI-H460 (Non-Small Cell Lung Cancer). The protocol:
(§1) Representative compounds of Formula I were screened using the National Cancer Institute (NCI) screening panel, which consists of a panel of human tumor cell lines, representing leukemia, melanoma, and cancers of the lung, colon, ovary, breast, prostate and renal system.
(§2) After 24 h, two plates of each cell line are fixed in situ with TCA, to represent a measurement of the cell population for each cell line at the time of drug addition (Tz). Experimental drugs are solubilised in dimethyl sulfoxide at 400-fold the desired final maximum test concentration and stored frozen prior to use. At the time of drug addition, an aliquot of frozen concentrate is thawed and diluted to twice the desired final maximum test concentration with complete medium containing 50 μg/mL gentamicin. Additional four, 10-fold or ½ log serial dilutions are made to provide a total of five drug concentrations plus control. Aliquots of 100 μl of these different drug dilutions are added to the appropriate microtiter wells already containing 100 μl of medium, resulting in the required final drug concentrations.
(§3) Following drug addition, the plates are incubated for an additional 48 h at 37° C., 5% CO2, 95% air, and 100% relative humidity. For adherent cells, the assay is terminated by the addition of cold TCA (trichloroacetic acid). Cells are fixed in situ by the gentle addition of 50 μl of cold 50% (w/v) TCA (final concentration, 10% TCA) and incubated for 60 minutes at 4° C. The supernatant is discarded, and the plates are washed five times with tap water and air dried. Sulforhodamine B (SRB) solution (100 μl) at 0.4% (w/v) in 1% acetic acid is added to each well, and plates are incubated for 10 minutes at room temperature. After staining, unbound dye is removed by washing five times with 1% acetic acid and the plates are air dried. Bound stain is subsequently solubilised with 10 mM trizma base, and the absorbance is read on an automated plate reader at a wavelength of 515 nm. For suspension cells, the methodology is the same except that the assay is terminated by fixing settled cells at the bottom of the wells by gently adding 50 μl of 80% TCA (final concentration, 16% TCA). Using the seven absorbance measurements [time zero, (Tz), control growth, (C), and test growth in the presence of drug at the five concentration levels (Ti)], the percentage growth is calculated at each of the drug concentrations levels. Percentage growth inhibition is calculated as: [(Ti−Tz)/(C−Tz)]×100 for concentrations for which Ti>/=Tz and [(Ti−Tz)/Tz]×100 for concentrations for which Ti<Tz.
(§4) Three dose response parameters are calculated for each experimental agent. Growth inhibition of 50% (GI50) is calculated from [(Ti−Tz)/(C−Tz)]×100=50, which is the drug concentration resulting in a 50% reduction in the net protein increase (as measured by SRB staining) in control cells during the drug incubation. The drug concentration resulting in total growth inhibition (TGI) is calculated from Ti=Tz. The LC50 (concentration of drug resulting in a 50% reduction in the measured protein at the end of the drug treatment as compared to that at the beginning) indicating a net loss of cells following treatment is calculated from [(Ti−Tz)/Tz]×100=−50. Values are calculated for each of these three parameters if the level of activity is reached. However, if the effect is not reached or is exceeded, the value for that parameter is expressed as greater or less than the maximum or minimum concentration tested.

The test system of the next assay is HCT-116. Briefly: NCI screening panel, HCT-116 (Colon Cancer). The protocol:
as §1, §2, §3, §4

For a further assay, the system named is SF-295. The assay is described as follows: NCI screening panel, SF-295 (CNS Cancer). The protocol: as §1, §2, §3, §4
The subject of the next assay is LOX IMVI. The assay is described as follows: NCI screening panel, LOX IMVI (Melanoma). The protocol:
as §1, §2, §3, §4

For the next assay, the system named is MALME-3M. The assay is described as follows: NCI screening panel, MALME-3M (Melanoma). The protocol: as §1, §2, §3, §4
A further assay has as its system SK-OV-3. The assay is described as follows: NCI screening panel, SK-OV-3 (Ovarian Cancer). The protocol:
as §1, §2, §3, §4

Another assay deals with ACHN. The assay is described as follows: NCI screening panel, ACHN (Renal Cancer). The protocol:
as §1, §2, §3, §4

A further assay concerns CAKI-1. Briefly: NCI screening panel, CAKI-1 (Renal Cancer). The protocol: as §1, §2, §3, §4

On to `CC(C)C[C@H](NC(=O)[C@H](COC(F)F)NC(=O)CN1CCOCC1)C(=O)N[C@@H](COC(F)F)C(=O)N[C@@H](CC(C)C)C(=O)[C@@]1(C)CO1` [Example 1, (2S)—N-[(1S)-1-(difluoromethoxymethyl)-2-[[(1S)-3-methyl-1-[(2R)-2-methyloxirane-2-carbonyl]butyl]amino]-2-oxo-ethyl]-2-[[(2S)-3-(difluoromethoxy)-2-[(2-morpholinoacetyl)amino]propanoyl]amino]-4-methyl-pentanamide], for which the Log10GI50 in the assay with NCI-H460 is −7.30; in the assay on HCT-116, -8.00; in the assay on SF-295, −7.51; in the assay on LOX IMVI it was −7.85; in the assay on MALME-3M it was −7.39; with SK-OV-3, −7.15. The Log10GI50 with ACHN is listed as −6.34; in the assay on CAKI-1, −6.29. The Log10LC50 in the assay with NCI-H460 was above −4.00; in the assay on HCT-116, −6.33; in the assay with SF-295, −6.09; with LOX IMVI, −7.16; with MALME-3M, above −4.00; in the assay on ACHN it was above −4.00. The Log10LC50 in the assay with CAKI-1 is given as above −4.00. The Log10TGI50 is −6.39 with NCI-H460; −7.34 with HCT-116; −6.88 in the assay with SF-295; −7.51 with LOX IMVI; −6.49 with MALME-3M; −6.36 in the assay with SK-OV-3. Further, the values for the Log10TGI50 in the assay on ACHN and in the assay on CAKI-1 were above −4.00 and −5.24, respectively.
For `CC(C)C[C@H](NC(=O)[C@H](COC(F)F)NC(=O)[C@H](COC(F)F)NC(=O)[C@H](CCc1ccccc1)NC(=O)CN1CCOCC1)C(=O)[C@@]1(C)CO1` [Example 7, (2S)-N-[(1S)-1-(difluoromethoxymethyl)-2-[[(1S)-1-(difluoromethoxymethyl)-2-[[(1S)-3-methyl-1-[(2R)-2-methyloxirane-2-carbo-nyl]butyl]amino]-2-oxo-ethyl]amino]-2-oxo-ethyl]-2-[(2-morpholinoacetyl)amino]-4-phenyl-butanamide], the Log10GI50 in the assay on NCI-H460 was −7.28; in the assay with HCT-116, below −8.00; in the assay on SF-295 it was −7.60; with LOX IMVI, −7.99; in the assay on MALME-3M it was −7.39; in the assay with SK-OV-3, −6.94. In addition, the Log10GI50 with ACHN was −6.31; in the assay with CAKI-1, −6.40. For the same compound, the Log10LC50 in the assay with NCI-H460 is above −4.00; in the assay with HCT-116, above −4.00; in the assay on SF-295, −6.15; in the assay on LOX IMVI it was −7.13; in the assay with MALME-3M it was above −4.00; in the assay on SK-OV-3 it was above −4.00. Also, the Log10LC50 in the assay on ACHN and with CAKI-1 was above −4.00 each time. For the same compound, the Log10TGI50 in the assay with NCI-H460 is −6.50; in the assay with HCT-116, −6.78; with SF-295 it was −6.97; in the assay with LOX IMVI, −7.56; in the assay on MALME-3M it was −6.75; in the assay with SK-OV-3, −5.46. Besides, the results for the Log10TGI50 in the assay on ACHN and in the assay with CAKI-1 were above −4.00 and −5.62, respectively.
`CC(C)C[C@H](NC(=O)[C@H](COC(F)F)NC(=O)CN1CCOCC1)C(=O)N[C@@H](Cc1ccccc1)C(=O)N[C@@H](CC(C)C)C(=O)[C@@]1(C)CO1` [Example 2, (2S)-N-[(1S)-1-benzyl-2-[[(1S)-3-methyl-1-[(2R)-2-methyloxirane-2-carbonyl]butyl]-amino]-2-oxo-ethyl]-2-[[(2S)-3-(difluoromethoxy)-2-[(2-morpholinoacetyl)amino]propanoyl]amino]-4-methyl-pentanamide]: the Log10GI50 is reported as −7.37 in the assay on NCI-H460; below -8.00 with HCT-116; −7.80 with SF-295; below −8.00 in the assay on LOX IMVI; −7.15 with SK-OV-3; −6.71 in the assay on ACHN. In the assay with CAKI-1, this compound returned a Log10GI50 of −6.68. Further, the Log10LC50 in the assay on NCI-H460 is above −4.00; in the assay on HCT-116 it was −6.97; with SF-295, −6.42; in the assay on LOX IMVI, −7.21; with SK-OV-3, above −4.00; in the assay with ACHN, above −4.00. The compound also registered a Log10LC50 in the assay with CAKI-1 above −4.00. In addition, the Log10TGI50 in the assay on NCI-H460 is on record as −6.57; in the assay with HCT-116, −7.72; in the assay on SF-295, −7.28; in the assay with LOX IMVI, −7.62; with SK-OV-3, −6.21; with ACHN, above −4.00. Besides, the Log10TGI50 with CAKI-1 is −5.93.
`CC(C)C[C@H](NC(=O)[C@H](COC(F)F)NC(=O)[C@H](COC(F)F)NC(=O)[C@H](COC(F)F)NC(=O)CN1CCOCC1)C(=O)[C@@]1(C)CO1` [Example 17, (2S)-3-(difluoromethoxy)-N-[(1S)-1-(difluoromethoxymethyl)-2-[[(1S)-1-(difluoro-methoxymethyl)-2-[[(1S)-3-methyl-1-[(2R)-2-methyloxirane-2-carbonyl]butyl]amino]-2-oxo-ethyl]amino]-2-oxo-ethyl]-2-[(2-mor-pholinoacetyl)amino]-propanamide]: the Log10GI50 in the assay with NCI-H460 is −6.50; with HCT-116, −7.45; in the assay with SF-295 it was −6.82; in the assay on LOX IMVI it was −7.36; in the assay with MALME-3M, −6.76; with SK-OV-3, −6.26. Besides, the Log10GI50 in the assay with ACHN was −5.55; in the assay with CAKI-1, −5.54. Further, the Log10LC50 with NCI-H460 is reported as −4.60; with HCT-116, −4.50; with SF-295 it was −5.37; in the assay on LOX IMVI, −6.36; with MALME-3M, above −4.00; with SK-OV-3, above −4.00. The Log10LC50 in the assay on ACHN and in the assay on CAKI-1 was above −4.00 in each case. Besides, the Log10TGI50 is given as −5.88 in the assay on NCI-H460; −6.60 in the assay on HCT-116; −6.20 with SF-295; −6.81 in the assay on LOX IMVI; −6.09 in the assay with MALME-3M; above −4.00 in the assay with SK-OV-3. Moreover, the values for the Log10TGI50 in the assay with ACHN and in the assay on CAKI-1 were above −4.00 and −4.81, respectively.
